Columns and labels:
A549 cells = assay: Proliferation Assay (A549 cell viability, Cell Titer Fluor); assay type: cell-based; conditions: Homo sapiens, 72 hours
Summary of the method: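 1000 A549 cells/well, RPMI 1640/10% dialyzed FBS, 24 h attach; compound 72 h, 0.5% DMSO, 37 °C/5% CO2; Cell Titer Fluor fluorescence; EC50 via 4-parameter logistic.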

[1] = target: T1, purified recombinant human GAC (GLS1) (Homo sapiens, UniProt O94925); assay: GLS1 Enzymatic Activity Assay (dual-coupled enzymatic assay); assay type: biochemical
T1 sequence (O94925 55-598 isoform O94925-3 limits assumed): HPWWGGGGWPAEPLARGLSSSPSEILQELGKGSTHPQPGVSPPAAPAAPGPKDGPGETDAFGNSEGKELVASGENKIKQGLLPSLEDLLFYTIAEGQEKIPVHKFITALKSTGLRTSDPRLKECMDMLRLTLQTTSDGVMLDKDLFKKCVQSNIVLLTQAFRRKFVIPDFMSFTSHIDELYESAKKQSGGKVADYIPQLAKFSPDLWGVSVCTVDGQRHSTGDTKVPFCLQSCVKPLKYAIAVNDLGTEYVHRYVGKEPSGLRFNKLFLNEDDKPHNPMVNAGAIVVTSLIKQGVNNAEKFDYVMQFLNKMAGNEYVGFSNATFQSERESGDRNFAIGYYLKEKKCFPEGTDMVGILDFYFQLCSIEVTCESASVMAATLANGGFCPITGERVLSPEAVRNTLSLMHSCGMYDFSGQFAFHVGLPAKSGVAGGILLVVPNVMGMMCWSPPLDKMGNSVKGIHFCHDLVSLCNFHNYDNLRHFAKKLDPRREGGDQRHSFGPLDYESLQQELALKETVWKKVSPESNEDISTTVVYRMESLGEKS
Summary of the method: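 GAC activity measured by coupling glutamate to glutamate oxidase and HRP, generating resorufin from Amplex UltraRed. Enzyme (2 nM) preincubated with 50 mM potassium phosphate 10 min at room temperature, then inhibitor 10 min; 1 mM glutamine substrate, 1% DMSO. Fluorescence 530/590 nm, kinetic or 20-min endpoint; IC50 from four-parameter logistic fit.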

Row | Structure (SMILES) | EC50 (A549 cells) | IC50 [1]
1 | O=C(NCc1cccc(C(F)(F)F)n1)c1cn(CCCCc2cc3c(-c4ccc(F)cc4F)c(C4CC4)[nH]c3nn2)nn1 [Example 220, 1-{4-[6-cyclopropyl-5-(2,4-difluorophenyl)-7H-pyrrolo[2,3-c]pyridazin-3-yl]butyl}-N-{[6-(trifluoromethyl)pyridin-2-yl]methyl}-1H-1,2,3-triazole-4-carboxamide] | 100 to 500 nM | < 100 nM
2 | Cc1ccc(CNC(=O)c2cn(CC(F)CCc3cc4cc(C5CC5)[nH]c4nn3)nn2)cn1 (stereo not drawn) [Example 231, 1-(4-{6-cyclopropyl-7H-pyrrolo[2,3-c]pyridazin-3-yl)-2-fluorobutyl)-N-[(6-methylpyridin-3-yl)methyl]-1H-1,2,3-triazole-4-carboxamide] | 100 to 500 nM | < 100 nM
3 | Cc1ccc(CNC(=O)c2cn(CCCCc3cc4cc(-c5ccc(OC(F)(F)F)cc5)[nH]c4nn3)nn2)cn1 [Example 182, N-[(6-methylpyridin-3-yl)methyl]-1-(4-{6-[4-(trifluoromethoxy)phenyl]-7H-pyrrolo[2,3-c]pyridazin-3-yl}butyl)-1H-1,2,3-triazole-4-carboxamide] | 100 to 500 nM | < 100 nM
4 | O=C(NCc1cc(OC(F)(F)F)ccc1F)c1cn(CCCCc2cc3cc(C4CN(C(=O)C5COC5)C4)[nH]c3nn2)nn1 [Example 235, N-{[2-fluoro-5-(trifluoromethoxy)phenyl]methyl}-1-(4-{6-[1-(oxetane-3-carbonyl)azetidin-3-yl]-7H-pyrrolo[2,3-c]pyridazin-3-yl}butyl)-1H-1,2,3-triazole-4-carboxamide] | 500 to 5000 nM | < 100 nM
5 | O=C(NCc1cc(C(F)(F)F)ccn1)c1cn(CCCCc2cc3cc(-c4ccccc4F)[nH]c3nn2)nn1 [Example 191] | 100 to 500 nM | < 100 nM
6 | N#Cc1ccc(-c2c(C3CC3)[nH]c3nnc(CCCCn4cc(C(=O)NCc5ccccn5)nn4)cc23)cc1 [Example 124, 1-{4-[5-(4-cyanophenyl)-6-cyclopropyl-7H-pyrrolo[2,3-c]pyridazin-3-yl]butyl}-N-(pyridin-2-ylmethyl)-1H-1,2,3-triazole-4-carboxamide] | 500 to 5000 nM | < 100 nM
7 | O=C(NCc1ccncc1)c1cn(CCCCc2cc3cc(C4CC4)[nH]c3nn2)nn1 [Example 37, 1-(4-{6-cyclopropyl-7H-pyrrolo[2,3-c]pyridazin-3-yl}butyl)-N-(pyridin-4-ylmethyl)-1H-1,2,3-triazole-4-carboxamide] | 500 to 5000 nM | 100 to 500 nM
8 | O=C(NCc1ccccn1)c1cn(CCCCc2cc3c(-c4ccc(O)cc4)c(C4CC4)[nH]c3nn2)nn1 [Example 138, 1-{4-[6-cyclopropyl-5-(4-hydroxyphenyl)-7H-pyrrolo[2,3-c]pyridazin-3-yl]butyl}-N-(pyridin-2-ylmethyl)-1H-1,2,3-triazole-4-carboxamide] | 500 to 5000 nM | < 100 nM
9 | CC(C)Cc1c(C2CC2)[nH]c2nnc(CCCCn3cc(C(=O)NCc4ccccn4)nn3)cc12 [Example 110, 1-{4-[6-cyclopropyl-5-(2-methylpropyl)-7H-pyrrolo[2,3-c]pyridazin-3-yl]butyl}-N-(pyridin-2-ylmethyl)-1H-1,2,3-triazole-4-carboxamide] | 100 to 500 nM | < 100 nM
10 | CC(C)(O)c1ccc(CNC(=O)c2cn(CCCCc3cc4c(-c5ccc(OC(F)(F)F)cc5)c(C5CC5)[nH]c4nn3)nn2)cn1 [Example 164, 1-(4-{6-cyclopropyl-5-[4-(trifluoromethoxy)phenyl]-7H-pyrrolo[2,3-c]pyridazin-3-yl}butyl)-N-{[6-(2-hydroxypropan-2-yl)pyridin-3-yl]methyl}-1H-1,2,3-triazole-4-carboxamide] | 100 to 500 nM | < 100 nM
11 | O=C(NCc1ccccn1)c1cn(CCCCc2cc3cc(C4(O)COC4)[nH]c3nn2)nn1 [Example 21, 1-(4-(6-(3-hydroxyoxetan-3-yl)-7H-pyrrolo[2,3-c]pyridazin-3-yl)butyl)-N-(pyridin-2-ylmethyl)-1H-1,2,3-triazole-4-carboxamide] | > 5000 nM | 100 to 500 nM
12 | Cc1ccc(CNC(=O)c2cn(CCCCc3cc4cc(C5CCN(C(=O)OC(C)(C)C)CC5)[nH]c4nn3)nn2)cn1 [Example 95, ten-butyl 4-{3-[4-(4-{[(6-methylpyridin-3-yl)methyl]carbamoyl}-1H-1,2,3-triazol-1-yl)butyl]-7H-pyrrolo[2,3-c]pyridazin-6-yl}piperidine-1-carboxylate] | 100 to 500 nM | < 100 nM
13 | CC(=O)Nc1cccc(-c2c(C3CC3)[nH]c3nnc(CCCCn4cc(C(=O)NCc5ccccn5)nn4)cc23)c1 [Example 153] | 500 to 5000 nM | < 100 nM
14 | CC(C)CNC(=O)c1nnc(CCCCc2cc3cc(Cc4ccccc4)[nH]c3nn2)s1 [Example 10, 5-(4-(6-Benzyl-7H-pyrrolo[2,3-c]pyridazin-3-yl)butyl)-N-isobutyl-1,3,4-thiadiazole-2-carboxamide] | 500 to 5000 nM | 100 to 500 nM
15 | O=C(NCC1CCOCC1)c1nnc(CCCCc2cc3cc(Cc4ccccc4)[nH]c3nn2)s1 [Example 78, 5-(4-{6-benzyl-7H-pyrrolo[2,3-c]pyridazin-3-yl}butyl)-N-(oxan-4-ylmethyl)-1,3,4-thiadiazole-2-carboxamide] | 500 to 5000 nM | 100 to 500 nM
16 | O=C(NCc1cc(OC(F)(F)F)ccc1F)c1cn(CCCCc2cc3cc(C4CN(C(=O)C5CC5)C4)[nH]c3nn2)nn1 [Example 224, 1-{4-[6-(1-cyclopropanecarbonylazetidin-3-yl)-7H-pyrrolo[2,3-c]pyridazin-3-yl]butyl}-N-{[2-fluoro-5-(trifluoromethoxy)phenyl]methyl}-1H-1,2,3-triazole-4-carboxamide] | 100 to 500 nM | < 100 nM
17 | O=C(NCc1cncc(C(F)(F)F)c1)c1cn(CCCCc2cc3c(-c4ccoc4)c(C4CC4)[nH]c3nn2)nn1 [Example 189, 1-{4-[6-cyclopropyl-5-(furan-3-yl)-7H-pyrrolo[2,3-c]pyridazin-3-yl]butyl}-N-{[5-(trifluoromethyl)pyridin-3-yl]methyl}-1H-1,2,3-triazole-4-carboxamide] | < 100 nM | < 100 nM
18 | CCOC(=O)N1CC(c2cc3cc(CCCCn4cc(C(=O)NCc5cc(OC(F)(F)F)ccc5F)nn4)nnc3[nH]2)C1 [Example 132, ethyl 3-(3-{4-[4-({[2-fluoro-5-(trifluoromethoxy)phenyl]methyl}carbamoyl)-1H-1,2,3-triazol-1-yl]butyl)-7H-pyrrolo[2,3-c]pyridazin-6-yl)azetidine-1-carboxylate] | < 100 nM | < 100 nM
19 | CC(C)(CO)CNC(=O)c1nnc(CCCCc2cc3cc(Cc4ccccc4)[nH]c3nn2)s1 [Example 79, 5-(4-{6-benzyl-7H-pyrrolo[2,3-c]pyridazin-3-yl}butyl)-N-(3-hydroxy-2,2-dimethylpropyl)-1,3,4-thiadiazole-2-carboxamide] | 500 to 5000 nM | 100 to 500 nM
20 | Cc1ccc(CNC(=O)c2cn(CCCCc3cc4cc(-c5ccccc5Cl)[nH]c4nn3)nn2)cn1 [Example 236, 1-{4-[6-(2-chlorophenyl)-7H-pyrrolo[2,3-c]pyridazin-3-yl]butyl}-N-[(6-methylpyridin-3-yl)methyl]-1H-1,2,3-triazole-4-carboxamide] | 100 to 500 nM | < 100 nM
21 | O=C(Nc1nnc(CCCCc2cc3cc(Cc4ccccc4)[nH]c3nn2)s1)OC1CCOCC1 [Example 61, oxan-4-yl N-[5-(4-{6-benzyl-7H-pyrrolo[2,3-c]pyridazin-3-yl}butyl)-1,3,4-thiadiazol-2-yl]carbamate] | 500 to 5000 nM | < 100 nM
22 | O=C(NCc1ccccn1)c1cn(CCCCc2cc3c(Cc4ccc5ccccc5c4)c(C4CC4)[nH]c3nn2)nn1 [Example 101, 1-{4-[6-cyclopropyl-5-(naphthalen-2-ylmethyl)-7H-pyrrolo[2,3-c]pyridazin-3-yl]butyl}-N-(pyridin-2-ylmethyl)-1H-1,2,3-triazole-4-carboxamide] | 100 to 500 nM | < 100 nM
23 | Cc1ccc(CNC(=O)c2cn(CCCCc3cc4c(-c5cccc(CNS(C)(=O)=O)c5)c(C5CC5)[nH]c4nn3)nn2)cn1 [Example 159, 1-(4-{6-cyclopropyl-5-[3-(methanesulfonamidomethyl)phenyl]-7H-pyrrolo[2,3-c]pyridazin-3-yl}butyl)-N-[(6-methylpyridin-3-yl)methyl]-1H-1,2,3-triazole-4-carboxamide] | 500 to 5000 nM | < 100 nM
24 | CC(=O)Nc1cccc(-c2c(C3CC3)[nH]c3nnc(CCCCn4cc(C(=O)NCc5ccc(C(C)(C)O)nc5)nn4)cc23)c1 [Example 152, 1-{4-[6-cyclopropyl-5-(3-acetamidophenyl)-7H-pyrrolo[2,3-c]pyridazin-3-yl]butyl}-N-{[6-(2-hydroxypropan-2-yl)pyridin-3-yl]methyl}-1H-1,2,3-triazole-4-carboxamide] | 500 to 5000 nM | < 100 nM

— patent US20160002248A1, “GLS1 INHIBITORS FOR TREATING DISEASE” (Board of Regents, The University of Texas System, priority 2014, published 2016)
